Laboratory results reported in PubChem BioAssay (NCI).
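A five-concentration, 48-hour dose response in 96-well plates underlies each endpoint, interpolated linearly between surrounding concentrations. The concentration for full growth arrest is given as TGI.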

Tests used:
Experiment in all cases: growth of human tumour cells (NCI), 48 h
SK-MEL-5 melanoma = system: SK-MEL-5 melanoma
OVCAR-8 ovarian = system: OVCAR-8 ovarian
HOP-92 NSCLC = system: HOP-92 NSCLC
SF-295 CNS = system: SF-295 CNS
NCI-H522 lung = system: NCI-H522 lung
BT-549 breast = system: BT-549 breast
HCC-2998 colon = system: HCC-2998 colon
CAKI-1 renal = system: CAKI-1 renal
RPMI-8226 leukemia = system: RPMI-8226 leukemia
A498 renal = system: A498 renal
TK-10 renal = system: TK-10 renal
KM12 colon = system: KM12 colon
SF-268 CNS = system: SF-268 CNS
NCI-H226 lung = system: NCI-H226 lung
HOP-62 NSCLC = system: HOP-62 NSCLC
HCT-116 colon = system: HCT-116 colon
786-0 renal = system: 786-0 renal
OVCAR-5 ovarian = system: OVCAR-5 ovarian
OVCAR-3 ovarian = system: OVCAR-3 ovarian
SF-539 CNS = system: SF-539 CNS
HL-60(TB) leukemia = system: HL-60(TB) leukemia
ACHN renal = system: ACHN renal
K-562 leukemia = system: K-562 leukemia
MDA-MB-231 breast = system: MDA-MB-231 breast
A549 NSCLC = system: A549 NSCLC
SR leukemia = system: SR leukemia
HT29 colon = system: HT29 colon
LOX IMVI melanoma = system: LOX IMVI melanoma
IGROV1 ovarian = system: IGROV1 ovarian
DU-145 prostate = system: DU-145 prostate
UACC-257 melanoma = system: UACC-257 melanoma
PC-3 prostate = system: PC-3 prostate
SK-MEL-2 melanoma = system: SK-MEL-2 melanoma
MDA-MB-435 = system: MDA-MB-435
OVCAR-4 ovarian = system: OVCAR-4 ovarian
HCT-15 colon = system: HCT-15 colon
SN12C renal = system: SN12C renal
MCF7 breast = system: MCF7 breast
SW-620 colon = system: SW-620 colon
NCI-H23 lung = system: NCI-H23 lung
MOLT-4 leukemia = system: MOLT-4 leukemia
U251 CNS = system: U251 CNS
COLO 205 colon = system: COLO 205 colon
HS 578T breast = system: HS 578T breast
SK-MEL-28 melanoma = system: SK-MEL-28 melanoma
NCI/ADR-RES ovarian = system: NCI/ADR-RES ovarian
UO-31 renal = system: UO-31 renal
MDA-N = system: MDA-N
SNB-19 CNS = system: SNB-19 CNS
UACC-62 melanoma = system: UACC-62 melanoma
NCI-H460 lung = system: NCI-H460 lung
MALME-3M melanoma = system: MALME-3M melanoma
EKVX NSCLC = system: EKVX NSCLC
RXF 393 renal = system: RXF 393 renal
M14 melanoma = system: M14 melanoma
CCRF-CEM leukemia = system: CCRF-CEM leukemia
SNB-75 CNS = system: SNB-75 CNS
T-47D breast = system: T-47D breast
SK-OV-3 ovarian = system: SK-OV-3 ovarian

In the case of `CC(=O)C(C(C)=O)[C@@H]1OC(C)(C)O[C@@H]1[C@H]1COC(C)(C)O1`, the TGI (SK-MEL-5 melanoma) is reported as over 100 µM, the TGI (OVCAR-8 ovarian) is reported as over 100 µM and the TGI (HOP-92 NSCLC) is reported as over 100 µM. The TGI (SF-295 CNS) was over 100 µM, the TGI (NCI-H522 lung) was 81.2 µM and the TGI (BT-549 breast) was over 100 µM. It also gave a TGI (HCC-2998 colon) of over 100 µM, a TGI (CAKI-1 renal) of over 100 µM and a TGI (RPMI-8226 leukemia) of over 100 µM. The TGI (A498 renal) was over 100 µM, the TGI (TK-10 renal) was over 100 µM and the TGI (KM12 colon) was over 100 µM. It also gave a TGI (SF-268 CNS) of over 100 µM, a TGI (NCI-H226 lung) of over 100 µM and a TGI (HOP-62 NSCLC) of over 100 µM. For the same molecule, the TGI (HCT-116 colon) was over 100 µM, the TGI (786-0 renal) was over 100 µM and the TGI (OVCAR-5 ovarian) was over 100 µM. For the same molecule, the TGI (OVCAR-3 ovarian) was over 100 µM, the TGI (SF-539 CNS) was over 100 µM and the TGI (HL-60(TB) leukemia) was over 100 µM. It also gave a TGI (ACHN renal) of over 100 µM, a TGI (K-562 leukemia) of over 100 µM and a TGI (MDA-MB-231 breast) of over 100 µM. The TGI (A549 NSCLC) was over 100 µM, the TGI (SR leukemia) was over 100 µM and the TGI (HT29 colon) was over 100 µM. For the same molecule, the TGI (LOX IMVI melanoma) was over 100 µM, the TGI (IGROV1 ovarian) was over 100 µM and the TGI (DU-145 prostate) was over 100 µM. For the same molecule, the TGI (UACC-257 melanoma) was over 100 µM, the TGI (PC-3 prostate) was over 100 µM and the TGI (SK-MEL-2 melanoma) was over 100 µM. The TGI (MDA-MB-435) was over 100 µM, the TGI (OVCAR-4 ovarian) was over 100 µM and the TGI (HCT-15 colon) was over 100 µM. For the same molecule, the TGI (SN12C renal) was 44.9 µM, the TGI (MCF7 breast) was over 100 µM and the TGI (SW-620 colon) was over 100 µM. It also gave a TGI (NCI-H23 lung) of over 100 µM, a TGI (MOLT-4 leukemia) of over 100 µM and a TGI (U251 CNS) of over 100 µM. It also gave a TGI (COLO 205 colon) of over 100 µM, a TGI (HS 578T breast) of over 100 µM and a TGI (SK-MEL-28 melanoma) of over 100 µM. The TGI (NCI/ADR-RES ovarian) was over 100 µM, the TGI (UO-31 renal) was over 100 µM and the TGI (MDA-N) was 70.1 µM. The TGI (SNB-19 CNS) was over 100 µM, the TGI (UACC-62 melanoma) was over 100 µM and the TGI (NCI-H460 lung) was over 100 µM. The TGI (MALME-3M melanoma) was 52.4 µM, the TGI (EKVX NSCLC) was 79.1 µM and the TGI (RXF 393 renal) was over 100 µM. It also gave a TGI (M14 melanoma) of over 100 µM.
In the case of `CN(O)C(=O)CCCC(=O)NCC(C)(C)CNC(=O)CCCC(=O)N(C)O`, the TGI (SK-MEL-5 melanoma) is reported as over 100 µM, the TGI (CCRF-CEM leukemia) is reported as over 100 µM and the TGI (OVCAR-8 ovarian) is reported as over 100 µM. It also gave a TGI (HOP-92 NSCLC) of over 100 µM, a TGI (SF-295 CNS) of over 100 µM and a TGI (HCC-2998 colon) of over 100 µM. It also gave a TGI (CAKI-1 renal) of over 100 µM, a TGI (RPMI-8226 leukemia) of over 100 µM and a TGI (A498 renal) of over 100 µM. For the same molecule, the TGI (TK-10 renal) was over 100 µM, the TGI (KM12 colon) was over 100 µM and the TGI (SF-268 CNS) was over 100 µM. For the same molecule, the TGI (NCI-H226 lung) was over 100 µM, the TGI (HOP-62 NSCLC) was over 100 µM and the TGI (SNB-75 CNS) was over 100 µM. For the same molecule, the TGI (OVCAR-5 ovarian) was over 100 µM, the TGI (OVCAR-3 ovarian) was over 100 µM and the TGI (SF-539 CNS) was over 100 µM. For the same molecule, the TGI (HL-60(TB) leukemia) was over 100 µM, the TGI (ACHN renal) was over 100 µM and the TGI (K-562 leukemia) was over 100 µM. It also gave a TGI (MDA-MB-231 breast) of over 100 µM, a TGI (A549 NSCLC) of over 100 µM and a TGI (SR leukemia) of over 100 µM. It also gave a TGI (HT29 colon) of over 100 µM, a TGI (LOX IMVI melanoma) of over 100 µM and a TGI (IGROV1 ovarian) of over 100 µM. It also gave a TGI (DU-145 prostate) of over 100 µM, a TGI (UACC-257 melanoma) of over 100 µM and a TGI (T-47D breast) of over 100 µM. The TGI (PC-3 prostate) was over 100 µM, the TGI (SK-MEL-2 melanoma) was over 100 µM and the TGI (MDA-MB-435) was over 100 µM. The TGI (OVCAR-4 ovarian) was over 100 µM, the TGI (HCT-15 colon) was over 100 µM and the TGI (MCF7 breast) was over 100 µM. It also gave a TGI (SW-620 colon) of over 100 µM, a TGI (NCI-H23 lung) of over 100 µM and a TGI (MOLT-4 leukemia) of over 100 µM. The TGI (U251 CNS) was over 100 µM, the TGI (COLO 205 colon) was over 100 µM and the TGI (HS 578T breast) was over 100 µM. It also gave a TGI (SK-OV-3 ovarian) of over 100 µM, a TGI (NCI/ADR-RES ovarian) of over 100 µM and a TGI (UO-31 renal) of over 100 µM. The TGI (MDA-N) was over 100 µM, the TGI (SNB-19 CNS) was over 100 µM and the TGI (UACC-62 melanoma) was over 100 µM. It also gave a TGI (NCI-H460 lung) of over 100 µM, a TGI (MALME-3M melanoma) of over 100 µM and a TGI (EKVX NSCLC) of over 100 µM. The TGI (RXF 393 renal) was over 100 µM and the TGI (M14 melanoma) was over 100 µM.
For `COC(=O)c1ccccc1/C=C1\Cc2ccc3c(c2C1=O)CCCC3`, the TGI (CCRF-CEM leukemia) was over 100 µM, the TGI (OVCAR-8 ovarian) was over 100 µM and the TGI (SF-295 CNS) was over 100 µM. The TGI (NCI-H522 lung) was over 100 µM, the TGI (BT-549 breast) was over 100 µM and the TGI (HCC-2998 colon) was over 100 µM. The TGI (CAKI-1 renal) was over 100 µM, the TGI (RPMI-8226 leukemia) was over 100 µM and the TGI (A498 renal) was over 100 µM. The TGI (TK-10 renal) was over 100 µM, the TGI (KM12 colon) was over 100 µM and the TGI (SF-268 CNS) was over 100 µM. For the same molecule, the TGI (NCI-H226 lung) was over 100 µM, the TGI (HOP-62 NSCLC) was over 100 µM and the TGI (SNB-75 CNS) was over 100 µM. It also gave a TGI (HCT-116 colon) of over 100 µM, a TGI (786-0 renal) of over 100 µM and a TGI (OVCAR-5 ovarian) of over 100 µM. The TGI (OVCAR-3 ovarian) was over 100 µM, the TGI (SF-539 CNS) was over 100 µM and the TGI (ACHN renal) was over 100 µM. For the same molecule, the TGI (K-562 leukemia) was over 100 µM, the TGI (MDA-MB-231 breast) was over 100 µM and the TGI (A549 NSCLC) was over 100 µM. For the same molecule, the TGI (SR leukemia) was over 100 µM, the TGI (HT29 colon) was over 100 µM and the TGI (LOX IMVI melanoma) was over 100 µM. It also gave a TGI (IGROV1 ovarian) of over 100 µM, a TGI (DU-145 prostate) of over 100 µM and a TGI (UACC-257 melanoma) of over 100 µM. The TGI (T-47D breast) was over 100 µM, the TGI (PC-3 prostate) was over 100 µM and the TGI (SK-MEL-2 melanoma) was over 100 µM. The TGI (MDA-MB-435) was over 100 µM, the TGI (OVCAR-4 ovarian) was over 100 µM and the TGI (HCT-15 colon) was over 100 µM. The TGI (SN12C renal) was over 100 µM, the TGI (MCF7 breast) was over 100 µM and the TGI (SW-620 colon) was over 100 µM. For the same molecule, the TGI (NCI-H23 lung) was over 100 µM, the TGI (MOLT-4 leukemia) was over 100 µM and the TGI (U251 CNS) was over 100 µM. The TGI (COLO 205 colon) was over 100 µM, the TGI (HS 578T breast) was over 100 µM and the TGI (SK-OV-3 ovarian) was over 100 µM. For the same molecule, the TGI (SK-MEL-28 melanoma) was over 100 µM, the TGI (NCI/ADR-RES ovarian) was over 100 µM and the TGI (UO-31 renal) was over 100 µM. The TGI (MDA-N) was over 100 µM, the TGI (SNB-19 CNS) was over 100 µM and the TGI (UACC-62 melanoma) was over 100 µM. The TGI (NCI-H460 lung) was over 100 µM, the TGI (MALME-3M melanoma) was over 100 µM and the TGI (EKVX NSCLC) was over 100 µM. For the same molecule, the TGI (M14 melanoma) was over 100 µM.
